According to PubChem BioAssay (NCI):
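The compound was tested at five concentrations on cells cultured in 96-well plates, with a 48-hour exposure period. GI50 is the concentration that inhibits growth by half. At the TGI there is no net growth.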

Tests used:
Assay in all cases: NCI-60 cell line screen, 48 h
[1] = system: HL-60(TB) leukemia
[2] = system: U251 CNS
[3] = system: HCC-2998 colon
[4] = system: HOP-92 NSCLC
[5] = system: BT-549 breast
[6] = system: UO-31 renal
[7] = system: SR leukemia
[8] = system: OVCAR-3 ovarian
[9] = system: UACC-62 melanoma
[10] = system: SK-MEL-5 melanoma
[11] = system: OVCAR-5 ovarian
[12] = system: COLO 205 colon
[13] = system: NCI/ADR-RES ovarian
[14] = system: MCF7 breast
[15] = system: UACC-257 melanoma
[16] = system: SN12C renal
[17] = system: NCI-H460 lung
[18] = system: A549 NSCLC
[19] = system: KM12 colon
[20] = system: DU-145 prostate
[21] = system: MALME-3M melanoma
[22] = system: NCI-H522 lung
[23] = system: MOLT-4 leukemia
[24] = system: OVCAR-4 ovarian
[25] = system: SNB-75 CNS
[26] = system: SF-295 CNS
[27] = system: SF-268 CNS
[28] = system: NCI-H23 lung
[29] = system: TK-10 renal

Work on `COc1ccc(C(=O)N/N=C/c2ccc(O)cc2O)cc1Nc1ccnc(C(F)(F)F)c1` yielded a GI50 [1] of 291 nM, a TGI [1] of 923 nM and a GI50 [2] of 401 nM. The TGI [2] was 29400 nM, the GI50 [3] was 513 nM and the TGI [3] was 22100 nM. For the same molecule, the GI50 [4] was 347 nM, the TGI [4] was 8430 nM and the GI50 [5] was 916 nM. The TGI [5] was 23800 nM, the GI50 [6] was 2640 nM and the TGI [6] was greater than 63800 nM. The GI50 [7] was 148 nM, the TGI [7] was 452 nM and the GI50 [8] was 317 nM. The TGI [8] was 17800 nM, the GI50 [9] was 448 nM and the TGI [9] was 11400 nM. The GI50 [10] was 534 nM, the TGI [10] was 5030 nM and the GI50 [11] was 1160 nM. It also gave a TGI [11] of 33000 nM, a GI50 [12] of 323 nM and a TGI [12] of 14300 nM. The GI50 [13] was 11900 nM, the TGI [13] was greater than 100000 nM and the GI50 [14] was 1570 nM. It also gave a TGI [14] of 16500 nM, a GI50 [15] of 1690 nM and a TGI [15] of 16900 nM. For the same molecule, the GI50 [16] was 1150 nM, the TGI [16] was greater than 47000 nM and the GI50 [17] was 3140 nM. The TGI [17] was 12700 nM, the GI50 [18] was 5110 nM and the TGI [18] was greater than 53900 nM. It also gave a GI50 [19] of 1820 nM, a TGI [19] of 13900 nM and a GI50 [20] of 622 nM. The TGI [20] was 15200 nM, the GI50 [21] was 891 nM and the TGI [21] was greater than 26700 nM. It also gave a GI50 [22] of 3220 nM, a TGI [22] of 27300 nM and a GI50 [23] of 357 nM. It also gave a TGI [23] of 2590 nM, a GI50 [24] of 270 nM and a GI50 [25] of 2220 nM. It also gave a TGI [25] of 49800 nM, a GI50 [26] of 1070 nM and a TGI [26] of 20600 nM. It also gave a GI50 [27] of 299 nM, a TGI [27] of 16700 nM and a GI50 [28] of 2390 nM. The TGI [28] was 20300 nM, the GI50 [29] was 994 nM and the TGI [29] was 58600 nM.
